As a reminder, the EC50 is the concentration needed to bring the measured effect to its halfway point. As a reminder, the Ki is a dissociation constant, usually derived from enzyme kinetics or from competition with a known ligand. A lower Ki goes with tighter binding.

In experiment [1] the test system is HCV replicons (HCV type 1b, Huh-7 luc/neo cells). The experiment can be described thus: Replicon assay (Huh-Luc cells, luciferase read-out). The experiment is classed as cell-based. Conditions: Hepatitis C virus, Huh-7, 72 h, Huh-Luc cells, incubation of three days, luciferase activity. An excerpt:
The compounds of formula (I) were examined for activity in the inhibition of HCV RNA replication in a cellular assay. […] The cellular assay was based on a bicistronic expression construct, as described by Lohmann et al. (1999) Science vol. 285 pp. 110-113 with modifications described by Krieger et al. (2001) Journal of Virology 75: 4614-4624, in a multi-target screening strategy. In essence, the method was as follows.
The assay utilized the stably transfected cell line Huh-7 luc/neo (hereafter referred to as Huh-Luc). This cell line harbors an RNA encoding a bicistronic expression construct comprising the wild type NS3-NS5B regions of HCV type 1b translated from an Internal Ribosome Entry Site (IRES) from encephalomyocarditis virus (EMCV), preceded by a reporter portion (FfL-luciferase), and a selectable marker portion (neo^R, neomycine phosphotransferase). The construct is bordered by 5′ and 3′ NTRs (non-translated regions) from HCV type 1b. Continued culture of the replicon cells in the presence of G418 (neo^R) is dependent on the replication of the HCV RNA. The stably transfected replicon cells that express HCV RNA, which replicates autonomously and to high levels, encoding inter alia luciferase, are used for screening the antiviral compounds.
The replicon cells were plated in 384 well plates in the presence of the test and control compounds which were added in various concentrations. Following an incubation of three days, HCV replication was measured by assaying luciferase activity (using standard luciferase assay substrates and reagents and a Perkin Elmer ViewLux™ ultraHTS microplate imager). Replicon cells in the control cultures have high luciferase expression in the absence of any inhibitor. The inhibitory activity of the compound on luciferase activity was monitored on the Huh-Luc cells, enabling a doseresponse curve for each test compound.
In general terms: In antiviral work, replicon cells carry a viral genome segment that copies itself.

The target in experiment [2] is T1, HCV NS3/4A protease complexes (full-length hepatitis C NS3 protease enzyme with NS4A cofactor) (Hepatitis C virus genotype 1a, UniProt P27958).
T1 construct: full-length hepatitis C NS3 protease enzyme
T1 sequence (P27958 1027-1657, one chain of several): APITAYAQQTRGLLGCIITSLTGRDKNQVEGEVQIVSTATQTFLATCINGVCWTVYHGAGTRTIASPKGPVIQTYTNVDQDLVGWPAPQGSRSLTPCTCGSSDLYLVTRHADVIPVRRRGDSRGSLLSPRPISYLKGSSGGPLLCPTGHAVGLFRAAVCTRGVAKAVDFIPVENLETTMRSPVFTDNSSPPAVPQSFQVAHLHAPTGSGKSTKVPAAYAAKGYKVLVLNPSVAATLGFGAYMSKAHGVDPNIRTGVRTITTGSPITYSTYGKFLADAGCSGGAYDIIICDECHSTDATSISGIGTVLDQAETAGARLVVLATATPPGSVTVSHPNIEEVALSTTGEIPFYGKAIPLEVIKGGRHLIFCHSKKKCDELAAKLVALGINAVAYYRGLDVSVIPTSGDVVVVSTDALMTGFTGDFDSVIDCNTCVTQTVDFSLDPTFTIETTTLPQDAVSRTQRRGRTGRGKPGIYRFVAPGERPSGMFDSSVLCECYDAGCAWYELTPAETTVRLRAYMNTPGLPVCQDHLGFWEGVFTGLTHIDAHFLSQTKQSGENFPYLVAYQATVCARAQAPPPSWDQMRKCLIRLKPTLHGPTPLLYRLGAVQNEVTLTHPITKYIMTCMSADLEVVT
As to the kind of experiment: Inhibition assay (enzymatic assay, depsipeptide substrate hydrolysis). To be noted: enzyme 1 nM, 25 μM NS4A cofactor, 0.5 μM substrate, 30° C., pH 7.5, model for competitive inhibition. The experiment is classed as biochemical. On the procedure: [Landro, 1997 #Biochem 36 9340-9348]. […] The solutions were stored at −20° C. between measurements.
[Liu, 1999 Analytical Biochemistry 267 331-335].

Bounds are passed on as bounds.

Consider `COc1ccc2c(OC3CC4C(=O)NC5(C(=O)O)CC5C=CCCCCN(C)C(=O)C4C3)nc(-c3nc(C4CC4)cs3)cc2c1` (centres unmarked) [Compound 29, 17-[3-(4-cyclopropylthiazol-2-yl)-6-methoxy-isoquinolin-1-yloxy]-13-methyl-2,14-dioxo-3,13-diazatricyclo[13.3.0.0^4,6]octadec-7-ene-4-carboxylic acid], for which the EC50 in experiment [1] was more than 10 µM. Further, in experiment [2], the Ki worked out at 0.15 µM. For `COc1ccc2c(O[C@@H]3C[C@H]4C(=O)N[C@]5(C(=O)NS(=O)(=O)C6CC6)C[C@H]5/C=C\CCCCN(C)C(=O)[C@@H]4C3)nc(-c3nc(C4CC4)cs3)cc2c1` [Compound 30, N-[17-[3-(4-cyclopropylthiazol-2-yl)-6-methoxyisoquinolin-1-yloxy]-13-methyl-2,14-dioxo-3,13-diazatricyclo[13.3.0.0^4,6]octadec-7-ene-4-carbonyl](cyclopropyl)sulfonamide], in that order: 3.03 µM and 0.0017 µM. `COc1ccc2c(O[C@@H]3C[C@H]4C(=O)N[C@]5(C(=O)O)C[C@H]5/C=C\CCCCN(C)C(=O)N4C3)nccc2c1Br` [Compound 50, 17-(5-bromo-6-methoxyisoquinolin-1-yloxy)-13-methyl-2,14-dioxo-3,13,15-triazatricyclo[13.3.0.0^4,6]octadec-7-ene-4-carboxylic acid] yielded a Ki in experiment [2] of more than 1 µM. Regarding `COc1ccc2c(O[C@@H]3C[C@H]4C(=O)N[C@]5(C(=O)NS(=O)(=O)C6CC6)C[C@H]5/C=C\CCCCN(C)C(=O)N4C3)nccc2c1-c1ccc(C)nc1` [Compound 52], the EC50 in experiment [1] is more than 10 µM.

`COc1ccc(-c2c(OC)ccc3c(O[C@@H]4C[C@H]5C(=O)N[C@]6(C(=O)NS(=O)(=O)C7CC7)C[C@H]6/C=C\CCCCN(C)C(=O)N5C4)nccc23)cc1` [Compound 53, N-[17-[5-(4-methoxyphenyl)-6-methoxyisoquinolin-1-yloxy]-13-methyl-2,14-dioxo-3,13,15-triaza-tricyclo[13.3.0.0^4,6]octadec-7-ene-4-carbonyl](cyclopropyl)sulfonamide]: the concentration for a half-maximal effect (EC50) in experiment [1] is more than 10 µM.

As for `COc1ccc2c(O[C@@H]3C[C@H]4C(=O)N[C@]5(C(=O)NS(=O)(=O)C6CC6)C[C@H]5/C=C\CCCCN(C)C(=O)N4C3)nccc2c1-c1ccccc1` [Compound 54, N-[17-[5-phenyl-6-methoxyisoquinolin-1-yloxy]-13-methyl-2,14-dioxo-3,13,15-triaza-tricyclo[13.3.0.0^4,6]octadec-7-ene-4-carbonyl](cyclopropyl) sulfonamide], the 50% effective concentration (EC50) in experiment [1] is more than 10 µM. Same read-out and setting: with `COc1ccc2c(O[C@@H]3C[C@H]4C(=O)N[C@]5(C(=O)NS(=O)(=O)C6CC6)C[C@H]5/C=C\CCCCN(C)C(=O)N4C3)nc(-c3ccc(OC(F)(F)F)cc3)cc2c1` [Compound 58, N-[17-(3-(4-trifluoromethoxyphenyl)-6-methoxyisoquinolin-1-yloxy)-13-methyl-2,14-dioxo-3,13,15-triaza-tricyclo[13.3.0.0^4,6]octadec-7-ene-4-carbonyl](cyclopropyl)sulfonamide] the figure was 2.31 µM. Same read-out and setting: for `COc1ccc2c(O[C@@H]3C[C@H]4C(=O)N[C@]5(C(=O)NS(=O)(=O)C6CC6)C[C@H]5/C=C\CCCCN(C)C(=O)N4C3)ncc(Br)c2c1` [Compound 66, N-[17-(4-bromo-6-methoxyisoquinolin-1-yloxy)-13-methyl-2,14-dioxo-3,13,15-triaza-tricyclo[13.3.0.0^4,6]octadec-7-ene-4-carbonyl](cyclopropyl) sulfonamide] the value was 0.323 µM; for `COc1ccc2c(O[C@@H]3C[C@H]4C(=O)N[C@]5(C(=O)O)C[C@H]5/C=C\CCCCN(C)C(=O)N4C3)nc(-c3csc(NC(C)C)n3)cc2c1` [Compound 71, 17-[3-(2-isopropylaminothiazol-4-yl)-6-methoxyisoquinolin-1-yloxy]-13-methyl-2,14-dioxo-3,13,15-triaza-tricyclo[13.3.0.0^4,6]octadec-7-ene-4-carboxylic acid], more than 10 µM.
